Assay results from US8334298B2, “Treatment or prevention of ovarian hyperstimulation syndrome (OHSS) using a dopamine agonist” (Ferring International Center S.A., priority 2005, dated 2012).

System: OHSS rats
Assay: Vascular permeability (Evans Blue) in OHSS rats treated with bromocriptine (Example 1)
Format: in vivo, Wistar rats
Conditions: VP 48 h after hCG
Experimental: Drug Treatment. Immature female Wistar rats were employed. In the OHSS group (n=8), Pregnant Mare's Serum Gonadotropin (PMSG) was administered at 10 IU/day for 4 days, followed by hCG (30 IU) on the fifth day. In the mild (i.e., ovarian stimulation) group (n=8), 10 IU of PMSG was administered followed 2 days later by administration of 10 IU of hCG. In the control group, 1 IU of PMSG was administered followed by 1 IU of hCG 48 hrs later. Vascular Permeability Measurement. Vascular permeability was measured 48 hours following hCG administration. 0.2 ml of 5 mM Evans Blue stain was injected via the femoral vein. After 30 minutes, the peritoneal cavity was irrigated with saline. Light absorption was measured in the recovered fluid at 595 nm and the vascular permeability was expressed as μg Evans blue/100 g body weight. In a second series of experiments, varying doses of bromocriptine were administered in a group of rats induced to develop OHSS with 40 IU of PMSG followed by 30 IU of hCG. 1.6, 4.0, 10.0 and 25.0 mg/kg of bromocriptine were intraperitoneally administered on the day of hCG administration and 24 hours later. VP was measured 48 hours following hCG administration.

In the case of `CC(C)C[C@H]1C(=O)N2CCC[C@H]2[C@]2(O)O[C@](NC(=O)[C@@H]3C=C4c5cccc6[nH]c(Br)c(c56)C[C@H]4N(C)C3)(C(C)C)C(=O)N12` [bromocriptine], the vascular permeability (1.6 mg bromocriptine i.p. on day of hCG and 24 h later, p=0.04) is reported as 15.3±3.3 μg Evans Blue/100 g body weight, the vascular permeability (4 mg bromocriptine i.p. on day of hCG and 24 h later, p=0.04) is reported as 14.2±2.2 μg Evans Blue/100 g body weight and the vascular permeability (10 mg bromocriptine i.p. on day of hCG and 24 h later, p=0.009) is reported as 10.1±2.6 μg Evans Blue/100 g body weight. For the same compound, the vascular permeability (25 mg bromocriptine i.p. on day of hCG and 24 h later, p=0.001) was 8.0±1.9 μg Evans Blue/100 g body weight.
